Values quoted from earlier work as cited in patent US7578964B2, “Powder injection molding composition and method of use” (priority 2001, dated 2009).

How the values were obtained:
[1] = solute solubility in water at 298.15 K; NIST Chemistry WebBook
[2] = for Octanol - Water Partition Coefficient log POW: Handbook of Environmental Data on Organic Compounds, 4th Edition

| SMILES | Henry's Law Constant k^0H [1] | Octanol - Water Partition Coefficient log POW [2] | log POW value ([2]; stated in text as known to those skilled in the art) |
| --- | --- | --- | --- |
| CC(C)=O [Acetone] | 30 mol/Kg*bar | −0.24 |  |
| c1ccccc1 [Benzene] | 0.18 mol/Kg*bar |  |  |
| ClC(Cl)(Cl)Cl [Carbon Tetrachloride] | 0.03 mol/Kg*bar | 2.64 |  |
| CCOCC [Diethyl Ether] | 0.78-1.2 mol/Kg*bar | 0.77 |  |
| C1COCCO1 [Dioxane] |  | −0.42 |  |
| CCO [Ethanol] | 200 mol/Kg*bar |  |  |
| CCOC(C)=O [Ethyl Acetate] | 8.9 mol/Kg*bar | 0.66 |  |
| CCCCCC [Hexane] | 0.001 mol/Kg*bar | 4 |  |
| CC(C)O [Isopropanol] | 130 mol/Kg*bar |  |  |
| CCC(C)=O [MEK] |  | 0.28 |  |
| CO [Methanol] |  | −0.82 |  |
| ClCCl [Methylene Chloride] | 0.41 mol/Kg*bar |  |  |
| C1CCOC1 [THF] |  | 0.45 |  |
| Cc1ccccc1 [Toluene] | 0.15 mol/Kg*bar |  |  |
| ClC=C(Cl)Cl [Trichloroethylene] | 0.11 mol/Kg*bar | 2.42 |  |
| O=C1CCCCCN1 [caprolactam, ε-caprolactam] |  |  | about 0.12 |
